Measurements published in patent US9725459B2, “3-oxo-tetrahydro-furo[3,2-B]pyrrol-4(5H)-yl) derivatives I” (GRÜNENTHAL GMBH, priority 2014, dated 2017).
Where two headings read alike, the source gives them in different places.

Columns and labels:
Format in all cases: biochemical
human cathepsin L (CatL) = human cathepsin L (CatL) (Homo sapiens (Human), UniProt P07711); assay: CatL functional enzyme assay; settings: read-out: hCatL, inhibition [%] at 31.6 μM
human cathepsin K (CatK) = human cathepsin K (CatK) (Homo sapiens (Human), UniProt P43235); assay: CatK functional enzyme assay; settings: recombinant human CatK, substrate Z-FR-AMC 40 μM, pH 5.5; Ki by Cheng Prusoff equation; read-out: hCatK, Ki
Chain of human cathepsin K (CatK) (P43235 115-329): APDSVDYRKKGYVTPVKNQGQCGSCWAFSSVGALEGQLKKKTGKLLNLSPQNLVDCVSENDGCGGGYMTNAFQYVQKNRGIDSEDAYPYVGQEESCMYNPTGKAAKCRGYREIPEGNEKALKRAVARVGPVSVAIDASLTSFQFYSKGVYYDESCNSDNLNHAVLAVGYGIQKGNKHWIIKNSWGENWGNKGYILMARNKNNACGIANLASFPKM
In short: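 Recombinant human enzymes in 50 mM NaOAc, 10 mM EDTA, 1 mM DTT, 0.01% Triton X-100, pH 5.5, 10 min at RT. CatK: 0.00175 mU/well with 40 μM Z-FR-AMC; CatL: 0.000874 mU/well with 40 μM Z-VVR-AMC. AMC fluorescence read; IC50 converted to Ki via Cheng–Prusoff.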

human cathepsin S (CatS) = human cathepsin S (CatS) (Homo sapiens (Human), UniProt P25774); assay: CatS functional enzyme assay; settings: for Selectivity Ki(hCatS)/Ki(hCatK): ratio Ki(hCatS)/Ki(hCatK); for Ki: read-out: hCatS, Ki
Chain of human cathepsin S (CatS) (P25774 115-331): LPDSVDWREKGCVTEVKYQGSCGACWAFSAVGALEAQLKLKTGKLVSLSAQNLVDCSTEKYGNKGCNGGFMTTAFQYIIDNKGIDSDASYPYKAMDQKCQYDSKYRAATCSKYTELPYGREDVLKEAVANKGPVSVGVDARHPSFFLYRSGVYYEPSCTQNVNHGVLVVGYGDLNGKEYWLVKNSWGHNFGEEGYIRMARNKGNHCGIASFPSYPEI
In short: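 Recombinant human enzymes were incubated 10 min at RT with AMC substrate: CatS 0.0007 mU/well with Z-VVR-AMC 5 µM; CatK 0.00175 mU/well with Z-FR-AMC 40 µM; CatL 0.000874 mU/well with Z-VVR-AMC 40 µM. Fluorescence gave IC50, converted to Ki by Cheng-Prusoff.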

[1] = recombinant human CatS, substrate Z-VVR-AMC 5 μM, pH 6.5, Ki by Cheng Prusoff equation

Chain of human cathepsin L (CatL) (P07711 114-333): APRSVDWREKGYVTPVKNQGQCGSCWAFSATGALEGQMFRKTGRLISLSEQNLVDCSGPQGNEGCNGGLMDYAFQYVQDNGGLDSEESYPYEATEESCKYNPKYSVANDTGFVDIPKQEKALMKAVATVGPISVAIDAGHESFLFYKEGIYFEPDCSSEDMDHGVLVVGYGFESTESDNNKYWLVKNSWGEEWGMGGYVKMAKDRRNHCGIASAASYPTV

| Compound | inhibition at 31.6 µM (human cathepsin L (CatL)) [%] | Ki (human cathepsin K (CatK)) [µM] | Selectivity Ki(hCatS)/Ki(hCatK) (human cathepsin S (CatS)) | Ki (human cathepsin S (CatS)) [µM] | Ki (human cathepsin S (CatS); [1]) [µM] |
| --- | --- | --- | --- | --- | --- |
| O=C(N[C@H](C(=O)N1C[C@H](Cl)[C@H]2OCC(=O)[C@H]21)C1CCCCC1)c1ccc(-c2ccccn2)s1 [Example 1, N-((S)-2-((3aS,6S,6aS)-6-chloro-3-oxotetrahydro-2H-furo[3,2-b]pyrrol-4(5H)-yl)-1-cyclohexyl-2-oxoethyl)-5-(pyridin-2-yl)thiophene-2-carboxamide] | 3 | 0.014 | 28.7 | 0.402 |  |
| O=C(N[C@H](C(=O)N1C[C@H](Cl)[C@H]2OCC(=O)[C@H]21)C1CCCCC1)c1ccc(-c2cnnc(O)c2)s1 [Example 80, N-((S)-2-((3aS,6S,6aS)-6-chloro-3-oxotetrahydro-2H-furo[3,2-b]pyrrol-4(5H)-yl)-1-cyclohexyl-2-oxoethyl)-5-(6-hydroxypyridazin-4-yl)thiophene-2-carboxamide] | 30 | 0.016 | 2.6 |  | 0.042 |
| O=C(N[C@H](C(=O)N1C[C@H](Cl)[C@H]2OCC(=O)[C@H]21)C1CCCCC1)c1ccc(-c2ccc(C3CC3)nc2)s1 [Example 63, N-((S)-2-((3aS,6S,6aS)-6-chloro-3-oxotetrahydro-2H-furo[3,2-b]pyrrol-4(5H)-yl)-1-cyclohexyl-2-oxoethyl)-5-(6-cyclopropylpyridin-3-yl)thiophene-2-carboxamide] | 1 | 0.019 | 27.6 |  | 0.525 |
| O=C(N[C@H](C(=O)N1C[C@H](Cl)[C@H]2OCC(=O)[C@H]21)C1CCCCC1)c1cc(F)c(-c2cccnn2)s1 [Example 54, N-((S)-2-((3aS,6S,6aS)-6-chloro-3-oxotetrahydro-2H-furo[3,2-b]pyrrol-4(5H)-yl)-1-cyclohexyl-2-oxoethyl)-4-fluoro-5-(pyridazin-3-yl)thiophene-2-carboxamide] | 27 | 0.021 | 25.1 |  | 0.528 |
| O=C(N[C@H](C(=O)N1C[C@H](Cl)[C@H]2OCC(=O)[C@H]21)C1CCCCC1)c1ccc(-c2cccnn2)s1 [Example 6, N-((S)-2-((3aS,6S,6aS)-6-chloro-3-oxotetrahydro-2H-furo[3,2-b]pyrrol-4(5H)-yl)-1-cyclohexyl-2-oxoethyl)-5-(pyridazin-3-yl)thiophene-2-carboxamide] | 36 | 0.011 | 5.5 |  | 0.06 |
| O=C(N[C@H](C(=O)N1C[C@H](Cl)[C@H]2OCC(=O)[C@H]21)C1CCCCC1)c1ccc(-c2ccc[n+]([O-])c2)s1 [Example 70, 3-(5-(((S)-2-((3aS,6S,6aS)-6-chloro-3-oxotetrahydro-2H-furo[3,2-b]pyrrol-4(5H)-yl)-1-cyclohexyl-2-oxoethyl)carbamoyl)thiophen-2-yl)pyridine 1-oxide] | 41 | 0.019 | 1.5 |  | 0.027 |
| O=C(N[C@H](C(=O)N1C[C@H](Cl)[C@H]2OCC(=O)[C@H]21)C1CCCCC1)c1ccc(-c2cc(C3CC3)cnn2)s1 [Example 74, N-((S)-2-((3aS,6S,6aS)-6-chloro-3-oxotetrahydro-2H-furo[3,2-b]pyrrol-4(5H)-yl)-1-cyclohexyl-2-oxoethyl)-5-(5-cyclopropylpyridazin-3-yl)thiophene-2-carboxamide] | 19 | 0.022 | 0.3 |  | 0.007 |
| O=C(N[C@H](C(=O)N1C[C@H](Cl)[C@H]2OCC(=O)[C@H]21)C1CCCCC1)c1cc(F)c(-c2cncnc2)s1 [Example 37, N-((S)-2-((3aS,6S,6aS)-6-chloro-3-oxotetrahydro-2H-furo[3,2-b]pyrrol-4(5H)-yl)-1-cyclohexyl-2-oxoethyl)-4-fluoro-5-(pyrimidin-5-yl)thiophene-2-carboxamide] | 29 | 0.015 | 26.7 | 0.401 |  |
| O=C(N[C@H](C(=O)N1C[C@H](Cl)[C@H]2OCC(=O)[C@H]21)C1CCCCC1)c1sc(-c2cccnc2)cc1F [Example 65, N-((S)-2-((3aS,6S,6aS)-6-chloro-3-oxotetrahydro-2H-furo[3,2-b]pyrrol-4(5H)-yl)-1-cyclohexyl-2-oxoethyl)-3-fluoro-5-(pyridin-3-yl)thiophene-2-carboxamide] | 5 | 0.551 | 1.2 |  | 0.646 |
| CCc1cnnc(-c2ccc(C(=O)N[C@H](C(=O)N3C[C@H](Cl)[C@H]4OCC(=O)[C@H]43)C3CCCCC3)s2)c1 [Example 73, N-((S)-2-((3aS,6S,6aS)-6-chloro-3-oxotetrahydro-2H-furo[3,2-b]pyrrol-4(5H)-yl)-1-cyclohexyl-2-oxoethyl)-5-(5-ethylpyridazin-3-yl)thiophene-2-carboxamide] | 26 | 0.015 | 0.9 |  | 0.013 |
| O=C(N[C@H](C(=O)N1C[C@H](Cl)[C@H]2OCC(=O)[C@H]21)C1CCCCC1)c1ccc(-c2ccc(Cl)nc2)s1 [Example 17, N-((S)-2-((3aS,6S,6aS)-6-chloro-3-oxotetrahydro-2H-furo[3,2-b]pyrrol-4(5H)-yl)-1-cyclohexyl-2-oxoethyl)-5-(6-chloropyridin-3-yl)thiophene-2-carboxamide] | 9 | 0.016 | 21.7 |  | 0.347 |
| O=C(N[C@H](C(=O)N1C[C@H](Cl)[C@H]2OCC(=O)[C@H]21)C1CCCCC1)c1ccc(-c2ncncc2F)s1 [Example 36, N-((S)-2-((3aS,6S,6aS)-6-chloro-3-oxotetrahydro-2H-furo[3,2-b]pyrrol-4(5H)-yl)-1-cyclohexyl-2-oxoethyl)-5-(5-fluoropyrimidin-4-yl)thiophene-2-carboxamide] | 9 | 0.022 | 21.3 |  | 0.469 |

More lines, in order of falling Ki (human cathepsin K (CatK)), values ahead:

| inhibition at 31.6 µM (human cathepsin L (CatL)) [%] | Ki (human cathepsin K (CatK)) [µM] | Selectivity Ki(hCatS)/Ki(hCatK) (human cathepsin S (CatS)) | Ki (human cathepsin S (CatS)) [µM] | Ki (human cathepsin S (CatS); [1]) [µM] | Compound |
| --- | --- | --- | --- | --- | --- |
| 23 | 0.042 | 3.6 |  | 0.15 | O=C(N[C@H](C(=O)N1C[C@H](Cl)[C@H]2OCC(=O)[C@H]21)C1CCCCC1)c1ncc(-c2cnc(C3CC3)nc2)s1 [Example 57, N-((S)-2-((3aS,6S,6aS)-6-chloro-3-oxotetrahydro-2H-furo[3,2-b]pyrrol-4(5H)-yl)-1-cyclohexyl-2-oxoethyl)-5-(2-cyclopropylpyrimidin-5-yl)thiazole-2-carboxamide] |
| 13 | 0.029 | 2.4 |  | 0.07 | O=C(N[C@H](C(=O)N1C[C@H](Cl)[C@H]2OCC(=O)[C@H]21)C1CCCCC1)c1ccc(-c2cnc(C3CC3)nc2)s1 [Example 55, N-((S)-2-((3aS,6S,6aS)-6-chloro-3-oxotetrahydro-2H-furo[3,2-b]pyrrol-4(5H)-yl)-1-cyclohexyl-2-oxoethyl)-5-(2-cyclopropylpyrimidin-5-yl)thiophene-2-carboxamide] |
| 21 | 0.02 | 0.8 |  | 0.016 | CS(=O)(=O)c1cnnc(-c2ccc(C(=O)N[C@H](C(=O)N3C[C@H](Cl)[C@H]4OCC(=O)[C@H]43)C3CCCCC3)s2)c1 [Example 78, N-((S)-2-((3aS,6S,6aS)-6-chloro-3-oxotetrahydro-2H-furo[3,2-b]pyrrol-4(5H)-yl)-1-cyclohexyl-2-oxoethyl)-5-(5-(methylsulfonyl)pyridazin-3-yl)thiophene-2-carboxamide] |
| 6 | 0.016 | 21.8 |  | 0.358 | Cc1ccnnc1-c1ccc(C(=O)N[C@H](C(=O)N2C[C@H](Cl)[C@H]3OCC(=O)[C@H]32)C2CCCCC2)s1 [Example 84, N-((S)-2-((3aS,6S,6aS)-6-chloro-3-oxotetrahydro-2H-furo[3,2-b]pyrrol-4(5H)-yl)-1-cyclohexyl-2-oxoethyl)-5-(4-methylpyridazin-3-yl)thiophene-2-carboxamide] |
| 33 | 0.015 | 4.7 |  | 0.07 | Cc1cnnc(-c2ccc(C(=O)N[C@H](C(=O)N3C[C@H](Cl)[C@H]4OCC(=O)[C@H]43)C3CCCCC3)s2)c1 [Example 44, N-((S)-2-((3aS,6S,6aS)-6-chloro-3-oxotetrahydro-2H-furo[3,2-b]pyrrol-4(5H)-yl)-1-cyclohexyl-2-oxoethyl)-5-(5-methylpyridazin-3-yl)thiophene-2-carboxamide] |
| 24 | 0.009 | 14.3 |  | 0.129 | O=C(N[C@H](C(=O)N1C[C@H](Cl)[C@H]2OCC(=O)[C@H]21)C1CCCCC1)c1ncc(-c2ccnc(C3CC3)c2)s1 [Example 82, N-((S)-2-((3aS,6S,6aS)-6-chloro-3-oxotetrahydro-2H-furo[3,2-b]pyrrol-4(5H)-yl)-1-cyclohexyl-2-oxoethyl)-5-(2-cyclopropylpyridin-4-yl)thiazole-2-carboxamide] |
